The values that follow come from paper PMC11509018, “Evaluation of the Role of Tanshinone I in an In Vitro System of Charcot-Marie-Tooth Disease Type 2N” (International Journal of Molecular Sciences, 2024).

The experiment has as its target T1, AlaRS R329H binding to Nrp1 (Homo sapiens, UniProt P49588, R329H).
T1 construct: expressed in transfected cells
T1 sequence (P49588 1-968 R329H): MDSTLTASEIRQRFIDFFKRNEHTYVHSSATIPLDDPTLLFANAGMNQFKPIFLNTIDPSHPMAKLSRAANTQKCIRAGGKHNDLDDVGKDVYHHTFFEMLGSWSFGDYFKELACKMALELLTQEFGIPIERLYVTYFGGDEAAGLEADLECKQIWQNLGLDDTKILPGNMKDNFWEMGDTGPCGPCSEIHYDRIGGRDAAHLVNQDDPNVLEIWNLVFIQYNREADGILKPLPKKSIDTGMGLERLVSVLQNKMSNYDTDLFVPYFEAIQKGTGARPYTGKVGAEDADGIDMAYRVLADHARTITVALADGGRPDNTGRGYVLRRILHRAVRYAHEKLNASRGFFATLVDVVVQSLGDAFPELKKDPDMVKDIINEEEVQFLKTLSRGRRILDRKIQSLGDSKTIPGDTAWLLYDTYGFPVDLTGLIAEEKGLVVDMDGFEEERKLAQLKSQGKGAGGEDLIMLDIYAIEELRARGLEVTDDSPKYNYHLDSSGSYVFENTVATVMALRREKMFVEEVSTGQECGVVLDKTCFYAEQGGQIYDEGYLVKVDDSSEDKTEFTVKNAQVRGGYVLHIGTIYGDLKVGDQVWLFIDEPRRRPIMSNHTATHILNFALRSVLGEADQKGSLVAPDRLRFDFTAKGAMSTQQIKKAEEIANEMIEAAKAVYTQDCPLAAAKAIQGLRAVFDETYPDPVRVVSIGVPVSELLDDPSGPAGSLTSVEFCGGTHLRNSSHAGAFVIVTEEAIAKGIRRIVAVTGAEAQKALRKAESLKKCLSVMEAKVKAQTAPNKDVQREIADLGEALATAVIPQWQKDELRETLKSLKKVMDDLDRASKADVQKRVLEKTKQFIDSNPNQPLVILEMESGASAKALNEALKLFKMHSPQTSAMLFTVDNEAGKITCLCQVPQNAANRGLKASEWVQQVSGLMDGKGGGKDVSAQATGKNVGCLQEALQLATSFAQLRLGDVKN
As to the kind of experiment: Co-IP of HA-AlaRS mutant with Nrp1 in transfected cells. Type of experiment: cell-based. To be noted: 20 µM Tanshinone I for 24 h, ImageJ, average of three repeats. The method, then: To further investigate whether Tanshinone I-induced conformational changes in AlaRS CMT mutants affect their interaction with Nrp1, Co-IP experiments were performed in cells treated with Tanshinone I. By comparing Co-IP results obtained before and after treatment, we assessed the influence of the drug on the binding strength and mode between the AlaRS CMT mutants and Nrp1. […] To confirm the direct effect of Tanshinone I on the interaction between AlaRS CMT mutants and Nrp1, pull-down experiments were performed. […] Given that the interaction between AlaRS mutants and Nrp1 is associated with disease progression in CMT, the ability of Tanshinone I to disrupt this binding highlights its potential to intervene in the pathogenic mechanisms of these diseases.
Figure 7 The impact of Tanshinone I on the interaction between AlaRS mutants and Nrp1. (A) Co-IP assays were conducted to assess the binding between HA-AlaRS mutants and Nrp1, both with and without treatment with 20 µM Tanshinone I for 24 h. […] (C) Pull down assay was performed to detect the binding between AlaRS mutants and GST-Nrp1 b1 with or without 20 µM Tanshinone I. (D) Relative quantification statistics of the AlaRS mutants pulled down from the GST pull down experiments after Tanshinone I treatment were performed using ImageJ. (E) The cell viability of 293T and NSC34 cells treated with different concentrations of Tanshinone I was assessed using the CCK-8 assay over a 24 h period. TEXT PRINTED IN THE PICTURE: (B) Tanshinone I: Mean density band (N71Y): 0.60; Mean density band (G102R): 0.53; Mean density band (R326W): 0.50; Mean density band (R329H): 0.50; Mean density band (E337K): 0.62 | (D) Tanshinone I: Mean density band (N71Y): 0.82; Mean density band (G102R): 0.76; Mean density band (R326W): 0.84; Mean density band (R329H): 0.84; Mean density band (E337K): 0.90
Total protein was extracted from cells using RIPA buffer (50 mM Tris-HCl pH 7.4, 150 mM NaCl, 1% NP40, 1 mM EDTA) supplemented with a protease and phosphatase inhibitor cocktail (Roche, Basel, Switzerland). After SDS-PAGE, the protein on the gel was transferred to a PVDF membrane (Bio-Rad, Hercules, CA, USA) and then blocked with 5% non-fat dry milk in TBST for 1 h. Then, the membranes were incubated with the indicated primary antibodies and corresponding HRP-conjugated secondary antibodies. Signals were detected using the Bio-Rad ChemiDoc system (Bio-Rad, Shanghai, China). The following antibodies were used: Flag (Ray antibody biotech, Beijing, China, 1:3000), HA (Ray antibody biotech, Beijing, China, 1:3000), and GAPDH (Ray antibody biotech, Beijing, China, 1:5000).
To detect the binding of Nrp1 and AlaRS mutants in cells, whole-cell lysates (500 μg) were treated overnight with 2 μg of anti-Flag antibody in RIPA buffer. Next, Protein A/G agarose beads (#sc-2003, Santa Cruz Biotechnology, Santa Cruz, CA, USA) were applied to the lysates and the samples were further treated for 8–12 h with rotation. Samples were washed three times with RIPA buffer. Subsequently, the immunoprecipitations were resuspended into 2 × SDS-loading buffer. The samples were then boiled for 10 min and detected using Western blot. The experiment was repeated three times.

On to `Cc1coc2c1C(=O)C(=O)c1c-2ccc2c(C)cccc12` [Tanshinone I], for which the “Mean density band (R329H), relative quantification of AlaRS mutant immunoprecipitated” value is on record as 0.50.
